Test results as given in US20260297092A1, “PYRAZOLOPYRIMIDINE DERIVATIVES AS INHIBITORS OF NLRP3” (Takeda Pharmaceutical Company Limited, priority 2023, published 2026).

Assays:
[1] = test system: NLRP3 inflammasome (IL-1β production in THP-1 cells); assay: IL-1β TR-FRET Assay (percentage of inhibition at 300 nM, 6 μM or 10 μM); type: cell-based, human; settings: Homo sapiens, LPS priming, ATP activation; for inhibition at 0.3 µM: THP-1, 300 nM, read-out: IL-1β inhibitory rate at 300 nM (%); for inhibition at 6 µM: THP-1, 6 μM, read-out: IL-1β inhibitory rate at 6 μM (%)
Summary of the method: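 THP-1 cells were differentiated with 25 ng/mL IFN-γ for 24 h, primed with 50 ng/mL LPS in serum-free medium for 24 h, then given compound for 30 min before 20 mM ATP for 2 h. Supernatant IL-1β was measured by HTRF after 16-24 h at room temperature. Inhibition was normalized between DMSO (high) and 3 μM MCC-950 (low).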

[2] = test system: TNF-α (NF-κB pathway, THP-1 cells); assay: TNF-α Assay (IC50); type: cell-based, human; settings: Homo sapiens, 600 ng/mL LPS, 3 hours
Summary of the method: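 THP-1 cells differentiated to macrophages with 25 ng/mL IFN for 24 h, plated 40,000/well in serum-free medium, preincubated with compounds 30 min at 37 °C, then stimulated with 600 ng/mL LPS for 3 h. Supernatant TNF-α measured by ELISA; IC50 from four-parameter logistic fit, 100% inhibition defined by TPCA-1.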

Row | IC50 [2] [µM] | Compound | inhibition at 0.3 µM [1] [%] | inhibition at 10 µM ([1]; THP-1, 10 μM, read-out: IL-1β inhibitory rate at 10 μM (%)) [%] | inhibition at 6 µM [1] [%]
1 | > 30 | CCOc1nc2nn(-c3c(C)cc(C4(F)CC4)cc3C)cc2c(=O)[nH]1 [Example 245, 6-ethoxy-2-[4-(1-fluorocyclopropyl)-2,6-dimethylphenyl]-2,5-dihydro-4H-pyrazolo[3,4-d]pyrimidin-4-one] |  |  | 101
2 | > 30 | COc1nc2nn(-c3c(C)cc(OC(F)F)cc3C(F)F)cc2c(=O)[nH]1 [Example 284, 2-[4-(difluoromethoxy)-2-(difluoromethyl)-6-methylphenyl]-6-methoxy-2,5-dihydro-4H-pyrazolo[3,4-d]pyrimidin-4-one] |  |  | 103
3 | > 30 | CCOc1nc2nn(-c3c(C(F)(F)F)cc(C4CC4)nc3C)cc2c(=O)[nH]1 [Example 269, 2-[6-cyclopropyl-2-methyl-4-(trifluoromethyl)pyridin-3-yl]-6-ethoxy-2,5-dihydro-4H-pyrazolo[3,4-d]pyrimidin-4-one] |  |  | 100
4 | > 30 | Cc1ccc(-n2cc3c(=O)[nH]c(OC4CCOCC4)nc3n2)c(C)c1 [Example 176, 2-(2,4-dimethylphenyl)-6-[(oxan-4-yl)oxy]-2,5-dihydro-4H-pyrazolo[3,4-d]pyrimidin-4-one] | 101 |  | 
5 | > 30 | Cc1cc(C2CC2)cc(C)c1-n1cc2c(=O)[nH]c(C3(F)CC3)nc2n1 [Example 190, 2-(4-cyclopropyl-2,6-dimethylphenyl)-6-(1-fluorocyclopropyl)-2,5-dihydro-4H-pyrazolo[3,4-d]pyrimidin-4-one] | 97 |  | 
6 | > 30 | CCOc1nc2nn(-c3c(F)cc(C)cc3CC(F)(F)F)cc2c(=O)[nH]1 [Example 134, 6-ethoxy-2-[2-fluoro-4-methyl-6-(2,2,2-trifluoroethyl)phenyl]-2,5-dihydro-4H-pyrazolo[3,4-d]pyrimidin-4-one] | 96 |  | 
7 | > 30 | CCOc1nc2nn(-c3c(C)cc(C)c(F)c3F)cc2c(=O)[nH]1 [Example 96, 2-(2,3-difluoro-4,6-dimethylphenyl)-6-ethoxy-2,5-dihydro-4H-pyrazolo[3,4-d]pyrimidin-4-one] | 55 |  | 
8 | > 30 | COCCOc1nc2nn(-c3c(C)cc(C4(F)CC4)cc3C)cc2c(=O)[nH]1 [Example 246, 2-[4-(1-fluorocyclopropyl)-2,6-dimethylphenyl]-6-(2-methoxyethoxy)-2,5-dihydro-4H-pyrazolo[3,4-d]pyrimidin-4-one] |  |  | 101
9 | > 30 | CCOc1nc2nn(-c3c(F)cc(Br)cc3C(F)(F)F)cc2c(=O)[nH]1 [Example 19, 2-[4-bromo-2-fluoro-6-(trifluoromethyl)phenyl]-6-ethoxy-2,5-dihydro-4H-pyrazolo[3,4-d]pyrimidin-4-one] | 95 |  | 
10 | > 30 | CCOc1nc2nn(-c3c(F)cc(C)cc3OC)cc2c(=O)[nH]1 [Example 93, 6-ethoxy-2-(2-fluoro-6-methoxy-4-methylphenyl)-2,5-dihydro-4H-pyrazolo[3,4-d]pyrimidin-4-one] | 80 |  | 
11 | > 30 | COC1(c2nc3nn(-c4c(C)cc(C5CC5)cc4C)cc3c(=O)[nH]2)CCC1 [Example 277, 2-(4-cyclopropyl-2,6-dimethylphenyl)-6-(1-methoxycyclobutyl)-2,5-dihydro-4H-pyrazolo[3,4-d]pyrimidin-4-one] |  |  | 96
12 | > 30 | Cc1nc(-c2nc3nn(-c4c(C)cc(C5CC5)cc4C)cc3c(=O)[nH]2)co1 [Example 272, 2-(4-cyclopropyl-2,6-dimethylphenyl)-6-(2-methyl-1,3-oxazol-4-yl)-2,5-dihydro-4H-pyrazolo[3,4-d]pyrimidin-4-one] |  |  | 95
13 | > 30 | Cc1cc(C)c(-n2cc3c(=O)[nH]c(OC(C)C(F)(F)F)nc3n2)c(O)c1 (stereo not shown) [Example 43, 2-(2-hydroxy-4,6-dimethylphenyl)-6-[(1,1,1-trifluoropropan-2-yl)oxy]-2,5-dihydro-4H-pyrazolo[3,4-d]pyrimidin-4-one] | 98 |  | 
14 | > 30 | CCOc1nc2nn(-c3c(C)cc(CC)cc3F)cc2c(=O)[nH]1 [Example 122, 6-ethoxy-2-(4-ethyl-2-fluoro-6-methylphenyl)-2,5-dihydro-4H-pyrazolo[3,4-d]pyrimidin-4-one] | 99 |  | 
15 | > 30 | CCOc1nc2nn(-c3c(F)cc(C)c(F)c3C)cc2c(=O)[nH]1 [Example 92, 2-(3,6-difluoro-2,4-dimethylphenyl)-6-ethoxy-2,5-dihydro-4H-pyrazolo[3,4-d]pyrimidin-4-one] | 82 |  | 

More lines, now with the values behind:

Row | Compound | IC50 [2] [µM] | inhibition at 0.3 µM [1] [%] | inhibition at 10 µM ([1]; THP-1, 10 μM, read-out: IL-1β inhibitory rate at 10 μM (%)) [%] | inhibition at 6 µM [1] [%]
16 | COCCOc1nc2nn(-c3c(C)cc(C)cc3O)cc2c(=O)[nH]1 [Example 22, 2-(2-hydroxy-4,6-dimethylphenyl)-6-(2-methoxyethoxy)-2,5-dihydro-4H-pyrazolo [3,4-d]pyrimidin-4-one] | > 30 | 101 |  | 
17 | CCOc1nc2nn(-c3c(C)ccc(C)c3F)cc2c(=O)[nH]1 [Example 101, 6-ethoxy-2-(2-fluoro-3,6-dimethylphenyl)-2,5-dihydro-4H-pyrazolo[3,4-d]pyrimidin-4-one] | > 30 |  | 95 | 
18 | CCOc1nc2nn(-c3ncc(Br)cc3Br)cc2c(=O)[nH]1 [Example 161, 2-(3,5-dibromopyridin-2-yl)-6-ethoxy-2,5-dihydro-4H-pyrazolo[3,4-d]pyrimidin-4-one] | > 30 | 97 |  | 
19 | CCOc1cc(C)c(-n2cc3c(=O)[nH]c(OCC)nc3n2)c(F)c1 [Example 160, 6-ethoxy-2-(4-ethoxy-2-fluoro-6-methylphenyl)-2,5-dihydro-4H-pyrazolo[3,4-d]pyrimidin-4-one] | > 30 | 84 |  | 
20 | CCOc1nc2nn(-c3ccc(C)cc3O)cc2c(=O)[nH]1 [Example 56, 6-ethoxy-2-(2-hydroxy-4-methylphenyl)-2,5-dihydro-4H-pyrazolo[3,4-d]pyrimidin-4-one] | > 30 | 100 |  | 
21 | Cc1cc(C)c(-n2cc3c(=O)[nH]c(O[C@H]4CCOC4)nc3n2)c(O)c1 [Example 14, 2-(2-hydroxy-4,6-dimethylphenyl)-6-{[(3S)-oxolan-3-yl]oxy}-2,5-dihydro-4H-pyrazolo[3,4-d]pyrimidin-4-one] | > 30 | 96 |  | 
22 | CO[C@@H]1C[C@H]1c1nc2nn(-c3c(C)cc(C4CC4)cc3C)cc2c(=O)[nH]1 (racemic) [Example 265, racemic mixture of 2-(4-cyclopropyl-2,6-dimethylphenyl)-6-[(1R,2S)-2-methoxycyclopropyl]-2,5-dihydro-4H-pyrazolo[3,4-d]pyrimidin-4-one and 2-(4-cyclopropyl-2,6-dimethylphenyl)-6-[(1S,2R)-2-methoxycyclopropyl]-2,5-dihydro-4H-pyrazolo[3,4-d]pyrimidin-4-one] | > 30 |  |  | 95
23 | CCOc1nc2nn(-c3c(C)cc(OC)cc3Br)cc2c(=O)[nH]1 [Example 143, 2-(2-bromo-4-methoxy-6-methylphenyl)-6-ethoxy-2,5-dihydro-4H-pyrazolo[3,4-d]pyrimidin-4-one] | > 30 | 93 |  | 
24 | CO[C@@H]1CC[C@H]1c1nc2nn(-c3c(C)cc(C4CC4)cc3C)cc2c(=O)[nH]1 (racemic) [Example 253, racemic mixture of 2-(4-cyclopropyl-2,6-dimethylphenyl)-6-[(1R,2S)-2-methoxycyclobutyl]-2,5-dihydro-4H-pyrazolo[3,4-d]pyrimidin-4-one and 2-(4-cyclopropyl-2,6-dimethylphenyl)-6-[(1S,2R)-2-methoxycyclobutyl]-2,5-dihydro-4H-pyrazolo[3,4-d]pyrimidin-4-one] | > 30 |  |  | 95
25 | Cc1cc(C2CC2)cc(C)c1-n1cc2c(=O)[nH]c(CC(F)(F)F)nc2n1 [Example 211, 2-(4-cyclopropyl-2,6-dimethylphenyl)-6-(2,2,2-trifluoroethyl)-2,5-dihydro-4H-pyrazolo[3,4-d]pyrimidin-4-one] | > 30 | 107 |  | 
26 | Cc1cc(C)c(-n2cc3c(=O)[nH]c(-c4ccccc4F)nc3n2)c(O)c1 [Example 20, 6-(2-fluorophenyl)-2-(2-hydroxy-4,6-dimethylphenyl)-2,5-dihydro-4H-pyrazolo[3,4-d]pyrimidin-4-one] | > 30 | 100 |  | 
27 | Cc1cc(C2CC2)cc(C)c1-n1cc2c(=O)[nH]c(O[C@@H]3CCOC3)nc2n1 [Example 293, 2-(4-cyclopropyl-2,6-dimethylphenyl)-6-{[(3R)-oxolan-3-yl]oxy}-2,5-dihydro-4H-pyrazolo[3,4-d]pyrimidin-4-one] | > 30 |  |  | 99
28 | CCOc1nc2nn(-c3ccc(Cl)cc3O)c(C)c2c(=O)[nH]1 [Example 60, 2-(4-chloro-2-hydroxyphenyl)-6-ethoxy-3-methyl-2,5-dihydro-4H-pyrazolo[3,4-d]pyrimidin-4-one] | > 30 | 100 |  | 
29 | CCOc1nc2nn(-c3c(C)cc(Br)cc3F)cc2c(=O)[nH]1 [Example 24, 2-(4-bromo-2-fluoro-6-methylphenyl)-6-ethoxy-2,5-dihydro-4H-pyrazolo[3,4-d]pyrimidin-4-one] | > 30 | 99 |  | 
